{
  "source": "paper PMC12479633",
  "about": "“A Phase IIa, Single-Blind, Placebo-Controlled, Parallel-Group Study to Assess Safety, Tolerability, and Pharmacokinetics/Pharmacodynamics of Brensocatib in Adults with Cystic Fibrosis” (Clinical Pharmacokinetics, 2025)",
  "key": {"[1]": {"tested_on": "neutrophil elastase (NE)", "design": "method as in PMID 32897034", "details": "NCFBE, cited from earlier work"}, "[2]": {"tested_on": "neutrophil elastase (NE)", "design": "method as in earlier work", "details": "Healthy adults, cited from earlier work"}, "[3]": {"assay": "Plasma pharmacokinetics of brensocatib in adults with CF, once-daily oral dosing for 28 days (noncompartmental analysis)", "assay_type": "in vivo, human", "details": "for Ctrough / CL/F / Cmax / Rac(AUC0–24), accumulation ratio based on AUC0–24 / Rac(Cmax), accumulation ratio based on Cmax / AUC(0-t): mean (CV%); for least squares geometric mean ratio (LSGMR) in AUC0–24 (90% CI) / least squares geometric mean ratio (LSGMR) in Cmax (90% CI): day 28; for AUC0–24 / D, geometric mean / AUClast / D, geometric mean / Cmax / D, geometric mean: dose-normalized", "description": "This was a phase IIa, single-blind, randomized, placebo-controlled trial with a parallel-group, multiple-dose design aimed at evaluating the PK, PD, safety, and tolerability of brensocatib in adults with CF (NCT05090904).\nParticipants were assigned to receive a once-daily dose of brensocatib (10 mg, 25 mg, or 40 mg) or placebo for 28 days.\nPlasma PK samples were collected on days 1 (at predose and 0.5, 1, 2, 4, 6, 8, and 24 h postdose), 14 (at predose and 2 h postdose), and 28 (at predose and 0.5, 1, 2, 4, 6, 8, 24, and 168 h postdose). The concentration of brensocatib in the plasma samples was analyzed using a validated liquid chromatography with tandem mass spectrometry method at an external service provider with a quantification range of 0.25–150 ng/mL. The overall intra- and inter-batch precision and accuracy were −2.7 to 2.0% and −1.8 to 0.8%, respectively. The long-term stability was established in human plasma for 346 days at −70 °C. The validation method details were published internally and stored within Insmed’s internal document repository.\nDescriptive statistics for continuous variables were calculated. Categorical variables were summarized by counts and by percentage of participants in the corresponding categories. No formal hypothesis was tested. Changes from baseline values were calculated and presented for both safety and efficacy data at each visit, including the percent change from baseline. PK parameters for brensocatib were assessed using noncompartmental analysis via Phoenix® WinNonlin® version 8.2 or later. SAS version 9.4 or higher was employed to prepare PK outputs.\nAnalysis of dose dependency for brensocatib Cmax, AUC0–24, and area under the concentration–time curve from time 0 to last measurable concentration (AUClast) after single-dose administration and at steady state (day 28) were performed using a power law model. Dose normalization of Cmax, AUC0–24, and AUClast was performed only when a linear and dose-dependent trend was observed."}, "[4]": {"details": "Day 1, with CFTR modulator, n 17"}, "[5]": {"details": "Day 1, without CFTR modulator, n 7"}, "[6]": {"details": "Day 28, with CFTR modulator, n 16"}, "[7]": {"details": "Day 28, without CFTR modulator, n 6"}},
  "note": "Where “and” joins values, the source holds several entries; their conditions need not be identical. Equal values may be shown once. Read-outs that look alike come from different tables or passages of the source. Marks after values point to notes of the source that are not given here.",
  "data": [
    {"smiles": "Cn1c(=O)oc2ccc(-c3ccc(C[C@@H](C#N)NC(=O)[C@@H]4CNCCCO4)cc3)cc21", "note": "[Brensocatib]", "values": [
      {"measurement": "Median % reduction of NE activity in the blood", "setting": "[1]; 10 mg, n = 38", "result": "30.9% and 30.9 (n = 38) %"},
      {"measurement": "Median % reduction of NE activity in the blood", "setting": "[1]; 25 mg, n = 45", "result": "66.5% and 66.5 (n = 45) %"},
      {"measurement": "Median % reduction of NE activity in the blood", "setting": "[2]; 10 mg, n = 6", "result": "34.8 (n = 6) %"},
      {"measurement": "Median % reduction of NE activity in the blood", "setting": "[2]; 25 mg, n = 7", "result": "42.6 (n = 7) %"},
      {"measurement": "Median % reduction of NE activity in the blood", "setting": "[2]; 40 mg, n = 7", "result": "55.1 (n = 7) %"},
      {"measurement": "Ctrough", "setting": "[3]; 10 mg QD, Day 1 column, presented for day 2, n = 8", "result": "46.3 (92.2) ng/mL"},
      {"measurement": "CL/F", "setting": "[3]; 10 mg QD, Day 28, n = 8", "result": "9.91 (28.6) L/h"},
      {"measurement": "Cmax", "setting": "[3]; 10 mg QD, Day 28, n = 8", "result": "90.1 (31.0) ng/mL"},
      {"measurement": "Ctrough", "setting": "[3]; 10 mg QD, Day 28, n = 8", "result": "27.2 (66.1) ng/mL"},
      {"measurement": "Rac(AUC0–24), accumulation ratio based on AUC0–24", "setting": "[3]; 10 mg QD, Day 28, n = 8", "result": "1.38 (32.2)"},
      {"measurement": "Rac(Cmax), accumulation ratio based on Cmax", "setting": "[3]; 10 mg QD, Day 28, n = 8", "result": "1.42 (22.6)"},
      {"measurement": "Cmax", "setting": "[3]; 25 mg QD, Day 1, n = 8", "result": "140 (24.1) ng/mL"},
      {"measurement": "Ctrough", "setting": "[3]; 25 mg QD, Day 1 column, presented for day 2, n = 8", "result": "39.3 (30.4) ng/mL"},
      {"measurement": "CL/F", "setting": "[3]; 25 mg QD, Day 28, n = 7", "result": "7.17 (30.1) L/h"},
      {"measurement": "Rac(AUC0–24), accumulation ratio based on AUC0–24", "setting": "[3]; 25 mg QD, Day 28, n = 7", "result": "2.26 (29.2)"},
      {"measurement": "Rac(Cmax), accumulation ratio based on Cmax", "setting": "[3]; 25 mg QD, Day 28, n = 7", "result": "1.72 (38.9)"},
      {"measurement": "Ctrough", "setting": "[3]; 25 mg QD, Day 28, n = 8", "result": "104 (43.6)^d ng/mL"},
      {"measurement": "Ctrough", "setting": "[3]; 40 mg QD, Day 1 column, presented for day 2, n = 8", "result": "108 (88.6) ng/mL"},
      {"measurement": "CL/F", "setting": "[3]; 40 mg QD, Day 28, n = 8", "result": "7.20 (42.8) L/h"},
      {"measurement": "Ctrough", "setting": "[3]; 40 mg QD, Day 28, n = 8", "result": "162 (41.8) ng/mL"},
      {"measurement": "Rac(AUC0–24), accumulation ratio based on AUC0–24", "setting": "[3]; 40 mg QD, Day 28, n = 8", "result": "1.81 (37.4)"},
      {"measurement": "Rac(Cmax), accumulation ratio based on Cmax", "setting": "[3]; 40 mg QD, Day 28, n = 8", "result": "1.43 (25.5)"},
      {"measurement": "least squares geometric mean ratio (LSGMR) in AUC0–24 (90% CI)", "setting": "[3]; 40-mg dose compared to 10 mg", "result": "1.42 (1.04–1.92)"},
      {"measurement": "least squares geometric mean ratio (LSGMR) in Cmax (90% CI)", "setting": "[3]; 40-mg dose compared to 10 mg", "result": "1.36 (1.02–1.82)"},
      {"measurement": "least squares geometric mean ratio (LSGMR) in AUC0–24 (90% CI)", "setting": "[3]; 40-mg dose compared to 25 mg", "result": "1.02 (0.74–1.41)"},
      {"measurement": "least squares geometric mean ratio (LSGMR) in Cmax (90% CI)", "setting": "[3]; 40-mg dose compared to 25 mg", "result": "1.25 (0.92–1.69)"},
      {"measurement": "AUClast / D, ratio with/without CFTR modulator (90% CI)", "setting": "[3]; Day 1, geometric mean ratio", "result": "1.21 (0.91–1.60)"},
      {"measurement": "AUC0–24 / D, geometric mean", "setting": "[3]; [4]", "result": 80.7, "unit": "ng·h/mL/mg"},
      {"measurement": "AUClast / D, geometric mean", "setting": "[3]; [4]", "result": 80.7, "unit": "ng·h/mL/mg"},
      {"measurement": "Cmax / D, geometric mean", "setting": "[3]; [4]", "result": 6.7, "unit": "ng/mL/mg"},
      {"measurement": "AUC0–24 / D, geometric mean", "setting": "[3]; [5]", "result": 66.8, "unit": "ng·h/mL/mg"},
      {"measurement": "AUClast / D, geometric mean", "setting": "[3]; [5]", "result": 66.8, "unit": "ng·h/mL/mg"},
      {"measurement": "Cmax / D, geometric mean", "setting": "[3]; [5]", "result": 6.3, "unit": "ng/mL/mg"},
      {"measurement": "AUC0–24 / D, ratio with/without CFTR modulator (90% CI)", "setting": "[3]; Day 28, geometric mean ratio", "result": "1.12 (0.82–1.52)"},
      {"measurement": "AUC0–24 / D, geometric mean", "setting": "[3]; [6]", "result": 134.2, "unit": "ng·h/mL/mg"},
      {"measurement": "AUClast / D, geometric mean", "setting": "[3]; [6]", "result": 295.1, "unit": "ng·h/mL/mg"},
      {"measurement": "Cmax / D, geometric mean", "setting": "[3]; Day 28, with CFTR modulator, n = 17", "result": "10.2^a ng/mL/mg"},
      {"measurement": "AUC0–24 / D, geometric mean", "setting": "[3]; [7]", "result": 120.2, "unit": "ng·h/mL/mg"},
      {"measurement": "AUClast / D, geometric mean", "setting": "[3]; [7]", "result": 271.3, "unit": "ng·h/mL/mg"},
      {"measurement": "Cmax / D, geometric mean", "setting": "[3]; [7]", "result": 8.8, "unit": "ng/mL/mg"},
      {"measurement": "inter-participant variability (coefficient of variation) in Cmax, AUC0–24 and t1/2", "setting": "[3]; generally within", "result": "15–50%"},
      {"measurement": "AUC(0-t)", "setting": "[3]; human, plasma, oral, 10 mg, 10 mg QD, Day 1, n = 8, read-out: AUC0–24", "result": 879, "unit": "ng·h/mL"},
      {"measurement": "AUC(0-t)", "setting": "[3]; human, plasma, oral, 10 mg, 10 mg QD, Day 1, n = 8, read-out: AUClast", "result": 879, "unit": "ng·h/mL"},
      {"measurement": "Cmax", "setting": "[3]; human, plasma, oral, 10 mg, 10 mg QD, Day 1, n = 8, with/without CFTR modulators, read-out: Cmax", "result": 67.3, "unit": "ng/mL"}
    ]}
  ]
}
